Converted amounts (≈) assume the structure as drawn.

Two compounds from patent US6046171A, “6,11-bridged erythromycin derivatives” (priority 1998, dated 2000) can be followed below.

Holding throughout (type): cell-based
For test [1], the system named is Staphylococcus aureus ATCC 6538P. Description: in vitro antibacterial MIC, agar dilution (BHI agar, Steers replicator). The conditions noted are these: organism code AA; 35-37° C., 20 to 24 hours; unit assumed. As to the method: (§1) Representative compounds of the present invention were assayed in vitro for antibacterial activity as follows: Twelve petri dishes containing successive aqueous dilutions of the test compound mixed with 10 mL of sterilized Brain Heart Infusion (BHI) agar (Difco 0418-01-5) were prepared. Each plate was inoculated with 1:100 (or 1:10 for slow-growing strains, such as Micrococcus and Streptococcus) dilutions of up to 32 different microorganisms, using a Steers replicator block. […] In addition, a control plate, using BHI agar containing no test compound, was prepared and incubated at the beginning and end of each test.
(§2) An additional plate containing a compound having known susceptibility patterns for the organisms being tested and belonging to the same antibiotic class as the test compound was also prepared and incubated as a further control, as well as to provide test-to-test comparability.
(§3) After incubation, each plate was visually inspected. The minimum inhibitory concentration (MIC) was defined as the lowest concentration of drug yielding no growth, a slight haze, or sparsely isolated colonies on the inoculum spot as compared to the growth control.

Test [2] relates to Staphylococcus aureus CMX 553. Description: in vitro antibacterial MIC, agar dilution. The conditions noted are these: organism code FF; 35-37° C., 20 to 24 hours; unit assumed. As to the method:
as §1, §2, §3
A general note: Agar dilution tests growth on a series of plates holding different concentrations.

Test [3] deals with Nocardia Asteroides ATCC9970. Description: in vitro antibacterial MIC, agar dilution. The following applies: organism code VV; 35-37° C., 20 to 24 hours; unit assumed. As to the method:
as §1, §2, §3

Test [4] concerns Enterococcus faecium ATCC 8Q43. Description: in vitro antibacterial MIC, agar dilution. The conditions noted are these: organism code II; 35-37° C., 20 to 24 hours; unit assumed. As to the method: as §1, §2, §3
The test system of test [5] is Micrococcus luteus ATCC 4698. Nature of the test: in vitro antibacterial MIC, agar dilution. The following applies: organism code PP; 35-37° C., 20 to 24 hours; unit assumed. As to the method: as §1, §2, §3
For test [6], the system named is Micrococcus luteus ATCC 9341. Nature of the test: in vitro antibacterial MIC, agar dilution. The following applies: organism code OO; 35-37° C., 20 to 24 hours; unit assumed. As to the method:
as §1, §2, §3

The subject of test [7] is Haemophilis Influenzae DILL AMP R. Nature of the test: in vitro antibacterial MIC, agar dilution. The conditions noted are these: organism code WW; 35-37° C., 20 to 24 hours; unit assumed. As to the method: as §1, §2, §3
The subject of test [8] is Streptococcus bovis A-5169. Description: in vitro antibacterial MIC, agar dilution. The conditions noted are these: organism code JJ; 35-37° C., 20 to 24 hours; unit assumed. As to the method:
as §1, §2, §3

For test [9], the system named is Streptococcus agalactiae CMX 508. Description: in vitro antibacterial MIC, agar dilution. The following applies: organism code KK; 35-37° C., 20 to 24 hours; unit assumed. As to the method:
as §1, §2, §3

Test [10] concerns Staphylococcus aureus A5177. Nature of the test: in vitro antibacterial MIC, agar dilution. The conditions noted are these: organism code BB; 35-37° C., 20 to 24 hours; unit assumed. As to the method: as §1, §2, §3
Test [11] has as its system Streptococcus Pheumoniae ATCC6303. Description: in vitro antibacterial MIC, agar dilution. The conditions noted are these: organism code XX; 35-37° C., 20 to 24 hours; unit assumed. As to the method:
as §1, §2, §3

The subject of test [12] is Staphylococcus aureus CMX 642A. Description: in vitro antibacterial MIC, agar dilution. The conditions noted are these: organism code DD; 35-37° C., 20 to 24 hours; unit assumed. As to the method:
as §1, §2, §3

Test [13] concerns Staphylococcus aureus NCTC10649M. Nature of the test: in vitro antibacterial MIC, agar dilution. The following applies: organism code EE; 35-37° C., 20 to 24 hours; unit assumed. As to the method: as §1, §2, §3
In test [14] the test system is Streptococcus Pheumoniae 5649. Nature of the test: in vitro antibacterial MIC, agar dilution. The conditions noted are these: organism code ZZA; 35-37° C., 20 to 24 hours; unit assumed. As to the method: as §1, §2, §3
Test [15] concerns Streptococcus pyogenes EES61. Description: in vitro antibacterial MIC, agar dilution. The conditions noted are these: organism code LL; 35-37° C., 20 to 24 hours; unit assumed. As to the method: as §1, §2, §3
Test [16] has as its system Streptococcus Pheumoniae 5979. Description: in vitro antibacterial MIC, agar dilution. The conditions noted are these: organism code ZZ; 35-37° C., 20 to 24 hours; unit assumed. As to the method:
as §1, §2, §3

The next test deals with Escherichia coli JUHL. Nature of the test: in vitro antibacterial MIC, agar dilution. The conditions noted are these: organism code QQ; 35-37° C., 20 to 24 hours; unit assumed. As to the method: as §1, §2, §3
Test [17] deals with Staphylococcus aureus A-5278. Nature of the test: in vitro antibacterial MIC, agar dilution. The conditions noted are these: organism code CC; 35-37° C., 20 to 24 hours; unit assumed. As to the method: as §1, §2, §3
The subject of test [18] is Staphylococcus aureus 1775. Nature of the test: in vitro antibacterial MIC, agar dilution. The conditions noted are these: organism code GG; 35-37° C., 20 to 24 hours; unit assumed. As to the method: as §1, §2, §3
Test [19] has as its system Staphylococcus epidermidis 3519. Nature of the test: in vitro antibacterial MIC, agar dilution. The following applies: organism code HH; 35-37° C., 20 to 24 hours; unit assumed. As to the method: as §1, §2, §3
For a further test, the system named is Escherichia coli DC-2. Description: in vitro antibacterial MIC, agar dilution. The following applies: organism code SS; 35-37° C., 20 to 24 hours; unit assumed. As to the method:
as §1, §2, §3

The subject of the next test is Escherichia coli SS. Description: in vitro antibacterial MIC, agar dilution. The conditions noted are these: organism code RR; 35-37° C., 20 to 24 hours; unit assumed. As to the method:
as §1, §2, §3

Test [20] deals with Mycobacterium smegmatis ATCC 114. Description: in vitro antibacterial MIC, agar dilution. The conditions noted are these: organism code UU; 35-37° C., 20 to 24 hours; unit assumed. As to the method: as §1, §2, §3
Test [21] relates to Streptococcus Pheumoniae GYR 1171. Nature of the test: in vitro antibacterial MIC, agar dilution. The following applies: organism code YY; 35-37° C., 20 to 24 hours; unit assumed. As to the method:
as §1, §2, §3

The test system of test [22] is Streptococcus pyogenes PIU 2548. Description: in vitro antibacterial MIC, agar dilution. The following applies: organism code NN; 35-37° C., 20 to 24 hours; unit assumed. As to the method: as §1, §2, §3
Test [23] deals with Streptococcus pyogenes 930. Nature of the test: in vitro antibacterial MIC, agar dilution. The conditions noted are these: organism code MM; 35-37° C., 20 to 24 hours; unit assumed. As to the method: as §1, §2, §3
In another test the test system is Candida albicans CCH 442. Nature of the test: in vitro MIC, agar dilution. The conditions noted are these: organism code TT; 35-37° C., 20 to 24 hours; unit assumed. As to the method: as §1, §2, §3

Take `CC[C@H]1OC(=O)[C@H](C)C(=O)[C@H](C)[C@@H](O[C@@H]2O[C@H](C)C[C@H](N(C)C)[C@H]2O)[C@@]2(C)C[C@@H](C)C(=O)[C@H](C)[C@H]3N(CCC=CCO2)C(=O)O[C@]13C` [Example 18]: the MIC came to 0.78 µg/mL (≈ 1.17 µM) in test [1]; 0.78 µg/mL (≈ 1.17 µM) in test [2]; 0.78 µg/mL (≈ 1.17 µM) in test [3]; 0.39 µg/mL (≈ 0.587 µM) in test [4]; 0.78 µg/mL (≈ 1.17 µM) in test [5]; 0.39 µg/mL (≈ 0.587 µM) in test [6]. For the same compound, the MIC in [7] is 128 µg/mL (≈ 193 µM); in test [8], 0.2 µg/mL (≈ 0.301 µM); in test [9], 0.2 µg/mL (≈ 0.301 µM); in [10] it was 0.78 µg/mL (≈ 1.17 µM); in test [11], 1 µg/mL (≈ 1.5 µM); in test [12], 0.78 µg/mL (≈ 1.17 µM). Besides, the MIC in test [13] was 0.78 µg/mL (≈ 1.17 µM); in test [14] it was 2 µg/mL (≈ 3.01 µM); in [15], 0.2 µg/mL (≈ 0.301 µM); in test [16] it was above 128 µg/mL.
On to `CC[C@H]1OC(=O)[C@H](C)[C@@H](O[C@H]2C[C@@](C)(OC)[C@@H](O)[C@H](C)O2)[C@H](C)[C@@H](O[C@@H]2O[C@H](C)C[C@H](N(C)C)[C@H]2O)[C@@]2(C)C[C@@H](C)C(=O)[C@H](C)[C@H]3N(CCNC(=O)c4ccccc4CC=CCO2)C(=O)O[C@]13C` [Example 24], for which the MIC in test [1] is 0.78 µg/mL (≈ 0.814 µM); in [2] it was 0.78 µg/mL (≈ 0.814 µM); in the test with Escherichia coli JUHL, 100 µg/mL (≈ 104 µM); in test [3], 0.1 µg/mL (≈ 0.104 µM); in test [4], 0.2 µg/mL (≈ 0.209 µM); in test [17] it was above 100 µg/mL. The MIC in [5] is 1.56 µg/mL (≈ 1.63 µM); in test [6], 0.1 µg/mL (≈ 0.104 µM); in [18] it was above 100 µg/mL; in test [19] it was 1.56 µg/mL (≈ 1.63 µM); against Escherichia coli DC-2 it was above 100 µg/mL; against Escherichia coli SS it was 6.2 µg/mL (≈ 6.47 µM). The MIC in test [7] was 16 µg/mL (≈ 16.7 µM); in [20] it was 0.39 µg/mL (≈ 0.407 µM); in [21] it was 0.03 µg/mL (≈ 0.0313 µM); in test [22], 12.5 µg/mL (≈ 13 µM); in test [8], 0.1 µg/mL (≈ 0.104 µM); in [9], 0.1 µg/mL (≈ 0.104 µM). In addition, the MIC in [23] was above 100 µg/mL; in test [10], 25 µg/mL (≈ 26.1 µM); in test [11], 0.03 µg/mL (≈ 0.0313 µM); in test [12] it was 1.56 µg/mL (≈ 1.63 µM); in test [13] it was 1.56 µg/mL (≈ 1.63 µM); in test [14] it was 16 µg/mL (≈ 16.7 µM). The MIC was 0.1 µg/mL (≈ 0.104 µM) in test [15], 128 µg/mL (≈ 134 µM) in test [16] and above 100 µg/mL with Candida albicans CCH 442.
